Measurements reported in paper PMC9258905, “Discovery of Quercetin and Its Analogs as Potent OXA-48 Beta-Lactamase Inhibitors” (Frontiers in Pharmacology, 2022).
Read-outs that look alike come from different tables or passages of the source.

How the values were obtained:
OXA-48 = biological target: T1, OXA-48 (Klebsiella pneumoniae, UniProt Q6XEC0); assay: Enzyme inhibition assay against purified OXA-48 with nitrocefin as substrate; format: biochemical; conditions: for inhibition at 50 µM / percent inhibition against OXA-48: nitrocefin substrate; for percent inhibition against OXA-48: 50 µM
T1 construct: made in house; host or cells: E. coli BL21(DE3)
Method: The inhibitory activity of compounds against the purified OXA-48 was tested on a BioTek HTS reader. The reactions were conducted in 0.1 M phosphate buffer (pH 7.0) supplemented with 50 mM NaHCO3 at 25°C with a final assay volume of 100 μL. The concentrations of enzyme and substrate were 12 nM and 200 μM, respectively. The initial reaction rates in the absence and presence of the compound were monitored at 495 nm in triplicate. The inhibitor concentration causing a 50% decrease in enzyme activity (IC50) was determined by plotting the percent inhibition against the log10 of the inhibitor concentration and fitting the data in a dose–response-inhibition model using GraphPad Prism 7.0.
Quercetin is a member of the flavonoid class with diverse structures obtained from nature, some of which have been used for the treatment of infectious diseases in traditional medical systems ([Farhadi et al., 2019]). To investigate whether quercetin and other flavonoids are OXA-48 inhibitors, the enzyme inhibition assays were conducted on a BioTek HTS reader using nitrocefin as a substrate. The concentrations of enzyme and substrate were 12 nM and 200 μM, respectively. The initial hydrolysis rate of nitrocefin was monitored at 495 nm. The percentage inhibition is defined as the enzyme activity in the absence of inhibitor (100%) minus the remaining activity in the presence of inhibitor.

[1] = system: E.coli BW25113 ∆acrA∆bamB (OXA-48); format: cell-based
Method: (§1) The recombinant plasmid containing the Pbla promoter and OXA-48 constructed above was then transformed into BW25113, BW25113 ∆acrA, BW25113 ∆bamB, and BW25113 ∆acrA∆bamB. The above strains were used to study the minimum inhibitory concentration (MIC). Antibiotic susceptibility tests were performed by the microdilution method following Clinical and Laboratory Standards Institute (CLSI) criteria ([CLSI, 2015]). Four E. coli strains expressing OXA-48 were used to assess the inhibitors. The susceptibility to piperacillin/imipenem combined with the compound at a concentration of 16 or 64 μg/mL was determined. […] Each measurement was conducted in triplicate. The fractional inhibitory concentration index (FICI) was determined according to the following formula: FICI = MIC (QT) in combination/MIC (QT) alone + MIC (PIP) in combination/MIC (PIP) alone. The drug interactions are defined as synergistic if the FICI is ≤0.5, indifferent if the FICI is >0.5 and ≤4.0, and antagonistic if the FICI is >4.0.
(§2) To investigate whether the compounds could restore the antimicrobial activity of β-lactam, the MICs of β-lactam antibiotics against resistant Gram-negative bacteria in the absence and presence of compounds (fisetin, 3′,4′,7-trihydroxyflavone, luteolin or quercetin) were determined by using published guidelines described by CLSI ([CLSI, 2015]). Specifically, we used OXA-48 producing strains E. coli BW25113, BW25113 ∆acrA, BW25113 ∆bamB, and BW25113 ∆acrA∆bamB as resistant Gram-negative bacteria. […] Imipenem, a carbapenem antibiotic, was applied at increasing concentrations ranging from 0.03 μg/mL to 4 μg/mL. The compounds were tested at 64 and 16 μg/mL.

[2] = system: E. coli BW25113 ∆acrA∆bamB (OXA-48); assay: Mouse systemic infection model; format: in vivo, Kunming mice; conditions: 10 mg/kg each, intravenous, 1 h post infection; organs 24 h post-infection; vs untreated group
[3] = system: E.coli BW25113 ∆acrA (OXA-48); format: cell-based
Method: as §1, §2

E.coli BW25113 (OXA-48) = format: cell-based
Method: as §1, §2

[4] = system: E.coli BW25113 ∆bamB (OXA-48); format: cell-based
Method: as §1, §2

[5] = read-out: percent inhibition against OXA-48, at 50 μM compound

T1 sequence (Q6XEC0 23-265 limits assumed): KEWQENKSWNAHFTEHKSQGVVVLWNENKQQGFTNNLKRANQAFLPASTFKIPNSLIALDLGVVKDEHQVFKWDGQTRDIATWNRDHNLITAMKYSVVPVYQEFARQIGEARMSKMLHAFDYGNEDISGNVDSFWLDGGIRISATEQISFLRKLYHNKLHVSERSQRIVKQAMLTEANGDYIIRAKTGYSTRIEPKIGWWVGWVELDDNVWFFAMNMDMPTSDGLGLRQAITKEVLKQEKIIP

O=C1C[C@@H](c2ccc(O)cc2)Oc2cc(O)cc(O)c21 [Naringenin]
IC50 (OXA-48): 68.1 ± 4.12 µM | inhibition at 50 µM (OXA-48; at 50 μM compound, read-out: percent inhibition against OXA-48): 27%

C[C@@H]1O[C@@H](OC[C@H]2O[C@@H](Oc3c(-c4ccc(O)c(O)c4)oc4cc(O)cc(O)c4c3=O)[C@H](O)[C@@H](O)[C@@H]2O)[C@H](O)[C@H](O)[C@H]1O [Rutin]
percent inhibition against OXA-48 (OXA-48; at 50 μM compound): 9% | inhibitory activity against OXA-48 (in words) (OXA-48; larger group at position 3): no inhibitory activity

O=C(O)[C@H]1O[C@@H](Oc2cc3oc(-c4ccccc4)cc(=O)c3c(O)c2O)[C@H](O)[C@@H](O)[C@@H]1O [Baicalin]
inhibition at 50 µM (OXA-48; [5]): 25%

O=c1cc(-c2ccc(O)c(O)c2)oc2cc(O)ccc12 [3′,4′,7-trihydroxyflavone]
IC50 (OXA-48): 1.89 ± 0.11 µM | percent inhibition against OXA-48 (OXA-48; at 50 μM compound): more than 50% | percent inhibition against OXA-48 (OXA-48; at 50 μM compound, listed as 3',4',7-trihydroxyflavone): 80% | reduction in the piperacillin MIC ([1]; compound at 64 μg/mL): 8 fold

CCN1CCN(C(=O)N[C@@H](C(=O)N[C@@H]2C(=O)N3[C@@H]2SC(C)(C)[C@@H]3C(=O)O)c2ccccc2)C(=O)C1=O [Piperacillin]
bacterial load in spleen and liver [2]: did not show a significant reduction of bacterial load | increase in the piperacillin susceptibility ([1]; codeletion of bamB and acrA vs wild type): 8 fold | Antibiotic MIC ([1]; inhibitor at 16 mg/L): 512 µg/mL | Antibiotic MIC ([1]; inhibitor at 64 mg/L): 512 µg/mL | Antibiotic MIC ([3]; inhibitor at 16 mg/L): 4096 µg/mL | Antibiotic MIC ([3]; inhibitor at 64 mg/L): 4096 µg/mL | Antibiotic MIC (E.coli BW25113 (OXA-48); inhibitor at 16 mg/L): 4096 µg/mL | Antibiotic MIC (E.coli BW25113 (OXA-48); inhibitor at 64 mg/L): 4096 µg/mL | increase in the piperacillin susceptibility ([4]; deletion of bamB alone vs wild type): 4 fold | Antibiotic MIC ([4]; inhibitor at 16 mg/L): 1024 µg/mL | Antibiotic MIC ([4]; inhibitor at 64 mg/L): 1024 µg/mL

O=c1cc(-c2ccccc2)oc2cc(O)cc(O)c12 [Chrysin]
IC50 (OXA-48): 108 ± 11 µM | percent inhibition against OXA-48 (OXA-48; at 50 μM compound): 8% | percent inhibition against OXA-48 (OXA-48; at 50 μM compound, listed as chrysin): less than 20%

COc1ccc(-c2cc(=O)c3c(OC)c(OC)c(OC)c(OC)c3o2)cc1 [Tangeretin]
inhibition at 50 µM (OXA-48; [5]): 7%

O=c1cc(-c2ccc(O)cc2)oc2cc(O)cc(O)c12 [Apigenin]
IC50 (OXA-48): 3.64 ± 0.24 µM | percent inhibition against OXA-48 (OXA-48; at 50 μM compound): 77% | percent inhibition against OXA-48 (OXA-48; at 50 μM compound, listed as apigenin): more than 50%

COc1ccc(-c2oc3c(CC=C(C)C)c(O[C@@H]4O[C@H](CO)[C@@H](O)[C@H](O)[C@H]4O)cc(O)c3c(=O)c2O[C@@H]2O[C@@H](C)[C@H](O)[C@@H](O)[C@H]2O)cc1 [Icariin]
percent inhibition against OXA-48 (OXA-48; at 50 μM compound): 0.3% | percent inhibition against OXA-48 (OXA-48; at 50 μM compound, listed as icarlin): less than 20%

COc1ccc(-c2cc(=O)c3c(O)cc(O[C@@H]4O[C@H](CO[C@@H]5O[C@@H](C)[C@H](O)[C@@H](O)[C@H]5O)[C@@H](O)[C@H](O)[C@H]4O)cc3o2)cc1O [Diosmin]
percent inhibition against OXA-48 (OXA-48; at 50 μM compound): 11% | inhibition at 50 µM (OXA-48; [5]): < 20%

O=c1c(O)c(-c2ccccc2)oc2cc(O)cc(O)c12 [Galangin]
IC50 (OXA-48): 216 ± 15 µM | percent inhibition against OXA-48 (OXA-48; at 50 μM compound): 3% | percent inhibition against OXA-48 (OXA-48; at 50 μM compound, listed as galangin): less than 20%

C[C@@H](O)[C@H]1C(=O)N2C(C(=O)O)=C(SCCN=CN)C[C@H]12 [Imipenem]
Antibiotic MIC ([1]; inhibitor at 16 mg/L): 4 µg/mL | Antibiotic MIC ([1]; inhibitor at 64 mg/L): 4 µg/mL | Antibiotic MIC ([3]; inhibitor at 16 mg/L): 4 µg/mL | Antibiotic MIC ([3]; inhibitor at 64 mg/L): 4 µg/mL | Antibiotic MIC (E.coli BW25113 (OXA-48); inhibitor at 16 mg/L): 4 µg/mL | Antibiotic MIC (E.coli BW25113 (OXA-48); inhibitor at 64 mg/L): 4 µg/mL | Antibiotic MIC ([4]; inhibitor at 16 mg/L): 4 µg/mL | Antibiotic MIC ([4]; inhibitor at 64 mg/L): 4 µg/mL

O=c1c(O)c(-c2ccc(O)cc2)oc2cc(O)cc(O)c12 [Kaempferol]
IC50 (OXA-48): 4.54 ± 0.05 µM | percent inhibition against OXA-48 (OXA-48; at 50 μM compound): 76% | percent inhibition against OXA-48 (OXA-48; at 50 μM compound, listed as kaempferol): more than 50%

O=c1c(O[C@@H]2O[C@H](CO)[C@@H](O)[C@H](O)[C@H]2O)c(-c2ccc(O)c(O)c2)oc2cc(O)cc(O)c12 [Isoquercitrin]
percent inhibition against OXA-48 (OXA-48; at 50 μM compound): 61% | IC50 (OXA-48; purified OXA-48 12 nM, nitrocefin 200 μM, 0.1 M phosphate buffer pH 7.0, 50 mM NaHCO3, 25°C, read-out: IC50 against OXA-48): 11.5 ± 1.22 µM | inhibition at 50 µM (OXA-48; [5]): > 50%

O=C1c2c(O)cc(O)cc2OC(c2ccc(O)c(O)c2)C1O (centres unmarked) [Taxifolin]
IC50 (OXA-48): 3.22 ± 0.23 µM | percent inhibition against OXA-48 (OXA-48; at 50 μM compound): 76%
